Test results reported in ChEMBL document CHEMBL1123054, “Synthesis and dopamine autoreceptor activity of a 5-(methylmercapto)methyl-substituted derivative of (+/-)-3-PPP (3-(3-hydroxyphenyl)-1-n-propylpiperidine)” (J Med Chem, 1985).

Tests used:
Mus musculus [1] = assay: Dopa accumulation induced by GBL was measured in mouse after subcutaneous administration of 32 umol/kg of compound; type: functional
Mus musculus [2] = assay: Dose required to produce convulsions in mouse was determined after subcutaneously administration; type: functional
Rattus norvegicus [3] = organism: Rattus norvegicus; assay: In vitro inhibitory activity was determined against dopamine synthesis in rat striatal synaptosomes; conditions: Brain
Rattus norvegicus [4] = organism: Rattus norvegicus; assay: as above; conditions: Brain; remark: listed apart in the source

IC50 (Rattus norvegicus [3]) [µM] | Structure (SMILES) | Accumulation (Mus musculus [1]) [%] | Dose (Mus musculus [2]) [µM/kg] | IC50 (Rattus norvegicus [4]) [µM]
45 | CCCN1C[C@H](CSC)C[C@H](c2cccc(O)c2)C1 | 89 | 100 | –
– | CCCN1CCCC(c2cccc(O)c2)C1 (stereo not given) | 60 | – | 55
